Measured values as given in ChEMBL document CHEMBL3763098, “Induction of apoptosis by cyclobutanones and derived polycyclic -lactones: a preliminary analysis of antiproliferative activity” (Medchemcomm, 2015).
Counter-ions that a name gives are not always drawn. Activity calls are given as the source filed them. The rule behind the calls is not given here.

How the values were obtained:
A549 = assay: Cytotoxicity against human A549 cells assessed as inhibition of cell growth after 48 hrs by sulforhodamine B assay; assay type: functional, cell-based; settings: A549, 48 h
[1] = Cytotoxicity against human THP1 cells assessed as inhibition of cell growth after 48 hrs by sulforhodamine B assay; assay type: functional, cell-based; settings: THP-1, 48 h
[2] = Cytotoxicity against human PC3 cells assessed as inhibition of cell growth after 48 hrs by sulforhodamine B assay; assay type: functional, cell-based; settings: PC-3, 48 h
[3] = Cytotoxicity against human HCT116 cells assessed as inhibition of cell growth after 48 hrs by sulforhodamine B assay; assay type: functional, cell-based; settings: HCT-116, 48 h
PC-3 [4] = assay: Induction of apoptosis in human PC3 cells assessed as cell shrinkage at IC50 incubated for 12 hrs by DAPI staining based confocal microscopy; assay type: functional
PC-3 [5] = assay: Induction of apoptosis in human PC3 cells assessed as cell rounding at IC50 incubated for 12 hrs by DAPI staining based confocal microscopy; assay type: functional
PC-3 [6] = assay: Induction of apoptosis in human PC3 cells assessed as plasma membrane blebbing at IC50 incubated for 12 hrs by DAPI staining based confocal microscopy; assay type: functional, cell-based
PC-3 [7] = assay: Induction of apoptosis in human PC3 cells assessed as smoothening of cell surface at IC50 incubated for 6 hrs by scanning electron microscopy; assay type: functional, cell-based
PC-3 [8] = assay: Induction of apoptosis in human PC3 cells assessed as plasma membrane blebbing at IC50 incubated for 6 hrs by scanning electron microscopy; assay type: functional, cell-based
PC-3 [9] = assay: Induction of apoptosis in human PC3 cells assessed as smoothening of cell surface at IC50 incubated for 12 hrs by scanning electron microscopy; assay type: functional, cell-based
PC-3 [10] = assay: Induction of apoptosis in human PC3 cells assessed as plasma membrane blebbing at IC50 incubated for 12 hrs by scanning electron microscopy; assay type: functional, cell-based
PC-3 [11] = assay: Induction of apoptosis in human PC3 cells assessed as decrease in cell size at IC50 incubated for 12 hrs by scanning electron microscopy; assay type: functional, cell-based
[12] = Cell cycle arrest in human PC3 cells assessed as accumulation at subG1 phase at 5 uM after 12 hrs by propidium iodide staining based flow cytometry (reference value: 29.6%); assay type: functional; settings: PC-3
[13] = Cell cycle arrest in human PC3 cells assessed as accumulation at subG1 phase at 10 uM after 12 hrs by propidium iodide staining based flow cytometry (reference value: 29.6%); assay type: functional; settings: PC-3
[14] = Cell cycle arrest in human PC3 cells assessed as accumulation at subG1 phase at 15 uM after 12 hrs by propidium iodide staining based flow cytometry (reference value: 29.6%); assay type: functional; settings: PC-3
[15] = Cell cycle arrest in human PC3 cells assessed as accumulation at subG1 phase after 12 hrs by propidium iodide staining based flow cytometry; assay type: functional; settings: PC-3
PC-3 [16] = assay: Induction of apoptosis in human PC3 cells assessed as mitochondrial membrane potential depolarization after 12 hrs using rhodamine 123 by spectrofluorimetric analysis; assay type: functional, cell-based
PC-3 [17] = assay: Induction of apoptosis in human PC3 cells assessed as increase in intracellular ROS level after 24 hrs using DCFH-DA by spectrofluorimetric analysis; assay type: functional, cell-based
[18] = Induction of apoptosis in CHO cells assessed as viable cells at 10 uM after 24 hrs by Annexin V-FITC/propidium iodide staining based flow cytometry (reference value: 91.8%); assay type: cell-based, Cricetulus griseus; settings: chinese hamster, read-out: Activity
CHO [19] = assay: Induction of apoptosis in CHO cells assessed as early apoptotic cells at 10 uM after 24 hrs by Annexin V-FITC/propidium iodide staining based flow cytometry (reference value: 3%); assay type: cell-based, Cricetulus griseus; settings: chinese hamster
CHO [20] = assay: Induction of apoptosis in CHO cells assessed as late apoptotic cells at 10 uM after 24 hrs by Annexin V-FITC/propidium iodide staining based flow cytometry (reference value: 1%); assay type: cell-based, Cricetulus griseus; settings: chinese hamster
CHO [21] = assay: Induction of apoptosis in CHO cells assessed as necrotic cells at 10 uM after 24 hrs by Annexin V-FITC/propidium iodide staining based flow cytometry (reference value: 4.3%); assay type: cell-based, Cricetulus griseus; settings: chinese hamster
[22] = Cell cycle arrest in human PC3 cells assessed as accumulation at subG1 phase at 2 uM after 12 hrs by propidium iodide staining based flow cytometry (reference value: 29.6%); assay type: functional; settings: PC-3

**Q.** Which IC50 (A549) does the source give for `Cc1ccccc1[C@H]1OC(=O)[C@@H]2C=C3C(C)(C)CCC[C@]3(C)[C@H]12` here?
**A.** 23 µM

**Q.** And the IC50 [1]?
**A.** > 50 µM

**Q.** What about the IC50 [2] of the same compound?
**A.** 21 µM

**Q.** And the IC50 [3]?
**A.** > 50 µM

**Q.** With `COc1ccccc1[C@H]1C(=O)[C@@H]2C=C3C(C)(C)CCC[C@]3(C)[C@H]12` as the compound, how does the IC50 (A549) read?
**A.** 10 µM

**Q.** What about the IC50 [1] of the same compound?
**A.** 10 µM

**Q.** And the IC50 [2]?
**A.** 8 µM

**Q.** What about the IC50 [3] of the same compound?
**A.** 12 µM

**Q.** And the Activity (PC-3 [4])?
**A.** Active

**Q.** And the Activity (PC-3 [5])?
**A.** Active

**Q.** What about the Activity (PC-3 [6]) of the same compound?
**A.** Active

**Q.** What about the Activity (PC-3 [7]) of the same compound?
**A.** Active

**Q.** What about the Activity (PC-3 [8]) of the same compound?
**A.** Active

**Q.** And the Activity (PC-3 [9])?
**A.** Active

**Q.** And the Activity (PC-3 [10])?
**A.** Active

**Q.** And the Activity (PC-3 [11])?
**A.** Active

**Q.** And the Activity [12]?
**A.** 45.2%

**Q.** What about the Activity [13] of the same compound?
**A.** 56.6%

**Q.** What about the Activity [14] of the same compound?
**A.** 74.1%

**Q.** What about the Activity [15] of the same compound?
**A.** Dose-dependent effect

**Q.** And the Activity (PC-3 [16])?
**A.** Dose-dependent effect

**Q.** And the Activity (PC-3 [17])?
**A.** Dose-dependent effect

**Q.** What about the viability at 24 h, 10 µM [18] of the same compound?
**A.** 54.5%

**Q.** What about the Activity (CHO [19]) of the same compound?
**A.** 37.6%

**Q.** And the Activity (CHO [20])?
**A.** 6.9%

**Q.** What about the Activity (CHO [21]) of the same compound?
**A.** 1.1%

**Q.** Which IC50 [1] does the source give for `CO[C@@]12[C@H](COC(N)=O)C3=C(C(=O)C(C)=C(N)C3=O)N1C[C@@H]1N[C@@H]12` [MITOMYCIN] here?
**A.** 0.5 µM

**Q.** What about the IC50 [2] of the same compound?
**A.** 0.2 µM

**Q.** Which IC50 (A549) does the source give for `CC1(C)CCC[C@@]2(C)C1=C[C@H]1C(=O)[C@H](c3ccccc3Cl)[C@H]12` here?
**A.** 25 µM

**Q.** What about the IC50 [1] of the same compound?
**A.** > 50 µM

**Q.** And the IC50 [2]?
**A.** > 50 µM

**Q.** What about the IC50 [3] of the same compound?
**A.** > 50 µM

**Q.** With `CC1(C)CCC[C@@]2(C)C1=C[C@H]1C(=O)[C@H](c3ccc(Cl)c(Cl)c3)[C@H]12` as the compound, how does the IC50 (A549) read?
**A.** > 50 µM

**Q.** What about the IC50 [1] of the same compound?
**A.** > 50 µM

**Q.** And the IC50 [2]?
**A.** > 50 µM

**Q.** What about the IC50 [3] of the same compound?
**A.** 38 µM

**Q.** For `CC1(C)CCC[C@@]2(C)C1=C[C@H]1C(=O)O[C@H](c3ccccc3Br)[C@H]12`, which IC50 (A549) is on record?
**A.** > 50 µM

**Q.** And the IC50 [1]?
**A.** > 50 µM

**Q.** And the IC50 [2]?
**A.** > 50 µM

**Q.** And the IC50 [3]?
**A.** > 50 µM

**Q.** With `O=c1[nH]cc(F)c(=O)[nH]1` [FLUOROURACIL] as the compound, how does the IC50 (A549) read?
**A.** 0.5 µM

**Q.** What does the source list for `CC1(C)CCC[C@@]2(C)C1=C[C@H]1C(=O)O[C@H](c3ccc(Cl)c(Cl)c3)[C@H]12`?
**A.** IC50 (A549): > 50 µM; IC50 [1]: > 50 µM; IC50 [2]: 12 µM; IC50 [3]: 20 µM

**Q.** What does the source list for `CC1(C)CCC[C@@]2(C)C1=C[C@H]1C(=O)O[C@H](c3ccccc3F)[C@H]12`?
**A.** IC50 (A549): > 50 µM; IC50 [1]: > 50 µM; IC50 [2]: > 50 µM; IC50 [3]: > 50 µM

**Q.** With `CC1(C)CCC[C@@]2(C)C1=C[C@H]1C(=O)[C@H](c3ccccc3F)[C@H]12` as the compound, how does the IC50 (A549) read?
**A.** 36 µM

**Q.** What about the IC50 [1] of the same compound?
**A.** 18 µM

**Q.** And the IC50 [2]?
**A.** > 50 µM

**Q.** And the IC50 [3]?
**A.** 17 µM

**Q.** For `COc1ccccc1[C@H]1OC(=O)[C@@H]2C=C3C(C)(C)CCC[C@]3(C)[C@H]12`, which IC50 (A549) is on record?
**A.** 18 µM

**Q.** And the IC50 [1]?
**A.** > 50 µM

**Q.** What about the IC50 [2] of the same compound?
**A.** 10 µM

**Q.** What about the IC50 [3] of the same compound?
**A.** 15 µM

**Q.** And the Activity (PC-3 [4])?
**A.** Active

**Q.** And the Activity (PC-3 [5])?
**A.** Active

**Q.** What about the Activity (PC-3 [6]) of the same compound?
**A.** Active

**Q.** And the Activity (PC-3 [7])?
**A.** Active

**Q.** And the Activity (PC-3 [8])?
**A.** Active

**Q.** What about the Activity (PC-3 [9]) of the same compound?
**A.** Active

**Q.** What about the Activity (PC-3 [10]) of the same compound?
**A.** Active

**Q.** And the Activity (PC-3 [11])?
**A.** Active

**Q.** What about the Activity [12] of the same compound?
**A.** 59.8%

**Q.** What about the Activity [13] of the same compound?
**A.** 68.1%

**Q.** What about the Activity [14] of the same compound?
**A.** 77.5%

**Q.** And the Activity (PC-3 [16])?
**A.** Dose-dependent effect

**Q.** And the Activity (PC-3 [17])?
**A.** Dose-dependent effect

**Q.** What about the viability at 24 h, 10 µM [18] of the same compound?
**A.** 56.8%

**Q.** What about the Activity (CHO [19]) of the same compound?
**A.** 36.2%

**Q.** And the Activity (CHO [20])?
**A.** 6.1%

**Q.** What about the Activity (CHO [21]) of the same compound?
**A.** 0.8%

**Q.** For `CC[C@@]1(O)C(=O)OCc2c1cc1n(c2=O)Cc2cc3ccccc3nc2-1` [CAMPTOTHECIN], which Activity [22] is on record?
**A.** 60.9%

**Q.** What about the viability at 24 h, 10 µM [18] of the same compound?
**A.** 74.8%

**Q.** What about the Activity (CHO [19]) of the same compound?
**A.** 21.6%

**Q.** And the Activity (CHO [20])?
**A.** 2.4%

**Q.** And the Activity (CHO [21])?
**A.** 1.2%

**Q.** With `COc1cccc2c1C(=O)c1c(O)c3c(c(O)c1C2=O)C[C@@](O)(C(=O)CO)C[C@@H]3O[C@H]1C[C@H](N)[C@H](O)[C@H](C)O1` [DOXORUBICIN HYDROCHLORIDE] as the compound, how does the IC50 [3] read?
**A.** 0.01 µM

**Q.** Which results are given for `Cc1ccccc1[C@H]1C(=O)[C@@H]2C=C3C(C)(C)CCC[C@]3(C)[C@H]12`?
**A.** IC50 (A549): 28 µM; IC50 [1]: > 50 µM; IC50 [2]: > 50 µM; IC50 [3]: > 50 µM

**Q.** For `CC1(C)CCC[C@@]2(C)C1=C[C@H]1C(=O)[C@H](c3ccccc3Br)[C@H]12`, which IC50 (A549) is on record?
**A.** 28 µM

**Q.** And the IC50 [1]?
**A.** 10 µM

**Q.** And the IC50 [2]?
**A.** > 50 µM

**Q.** What about the IC50 [3] of the same compound?
**A.** 19 µM

**Q.** Which IC50 (A549) does the source give for `CC1(C)CCC[C@@]2(C)C1=C[C@H]1C(=O)O[C@H](c3ccccc3Cl)[C@H]12` here?
**A.** 40 µM

**Q.** And the IC50 [1]?
**A.** > 50 µM

**Q.** What about the IC50 [2] of the same compound?
**A.** > 50 µM

**Q.** And the IC50 [3]?
**A.** > 50 µM
